Test in all cases: DTP human tumour cell line panel, 48 h
The subject of experiment [1] is A549 NSCLC.
The test system of experiment [2] is ACHN renal.
The test system of experiment [3] is HL-60(TB) leukemia.
Experiment [4] deals with HOP-92 NSCLC.
Experiment [5] deals with M14 melanoma.
The subject of experiment [6] is MDA-MB-231 breast.
The test system of experiment [7] is NCI-H522 lung.
The test system of experiment [8] is RXF 393 renal.
Experiment [9] deals with UACC-257 melanoma.
In experiment [10] the test system is UACC-62 melanoma.

Our source for the TGI and GI50 values is PubChem BioAssay (NCI).

Values joined by “and” are separate entries in the source; they are usually repeats but may differ in a detail not shown here. Identical values can stand only once.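 Briefly, cells in 96-well plates were exposed to five compound concentrations for 48 h, and endpoints were estimated by linear interpolation. GI50 marks 50% less growth. TGI denotes the concentration required for complete inhibition of growth.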

For the compound `Cc1ccc(S(=O)(=O)NC(=O)Nc2ccc(C(=O)O)cc2)cc1`, the TGI in experiment [1], in experiment [2], in experiment [3], in [4], in experiment [5] and in experiment [6] was more than 100 µM in each case. Further, the TGI in experiment [7], in [8], in experiment [9] and in experiment [10] was more than 100 µM throughout.

With `NC(=O)CSc1nc2ccccc2c(=O)n1N`, the TGI in [1], in experiment [2], in experiment [4], in [5], in experiment [6] and in experiment [7] was more than 100 µM throughout. Further, the TGI in experiment [8], in experiment [9] and in experiment [10] was more than 100 µM in each case.

On to `Cc1nnc(SCc2nc(C#N)c(C#N)nc2CSc2nnc(C)s2)s1`, for which the concentration for total growth inhibition (TGI) (in general, the concentration giving total growth inhibition) in experiment [1] is more than 100 µM; in experiment [2] it was 22.5 µM; in experiment [3] it was 7.74 µM; in [4], 26.8 µM; in [5], 37.6 µM; in [6], 31.4 µM. In addition, the TGI came to 9.22 µM in experiment [7], 18 µM in experiment [8], 28.3 µM in [9] and 30.7 µM in experiment [10].

Regarding `Cc1ccc(C(=O)Nc2ccc(CP(=O)(O)O)cc2CP(=O)(O)O)cc1N`, the concentration for total growth inhibition (TGI) in experiment [1], in [2], in experiment [3], in [4], in experiment [5] and in [6] was more than 100 µM in each case. Also, the total growth inhibition concentration (TGI) in experiment [7], in experiment [8], in [9] and in [10] was more than 100 µM throughout.

As for `Cc1n[nH]c(=O)n1-n1cccc1`, the TGI in [1], in [2], in experiment [4], in experiment [5], in experiment [6] and in [7] was more than 100 µM each time. Also, the TGI in experiment [8], in experiment [9] and in experiment [10] was more than 100 µM throughout.

For `CC1(C)C(=O)/C(=C/c2ccccc2)C(C)(C)C1(C)C`, the TGI in experiment [1] is more than 100 µM; in experiment [2], more than 100 µM; in experiment [3], 46.7 µM; in [4], more than 100 µM; in experiment [5], more than 100 µM; in experiment [6] it was more than 100 µM. Further, the TGI in experiment [7], in experiment [8], in experiment [9] and in experiment [10] was more than 100 µM throughout.

As to `O=C(Nc1cccc2ccccc12)c1cc2ccccc2oc1=O`, the TGI in [1] is more than 100 µM; in experiment [2], more than 100 µM; in experiment [3], more than 100 µM; in experiment [4], more than 100 µM; in [5], more than 100 µM; in experiment [6] it was 58.1 µM. The TGI in experiment [8], in [9] and in [10] was more than 100 µM each time.

With `Cc1cc2nc(N3C(=O)/C(=C/Cc4ccco4)N=C3c3ccccc3)sc2cc1C`, the TGI in experiment [1] was more than 100 µM; in experiment [2] it was 96.3 µM; in experiment [3], 46.1 µM; in experiment [4], 60.5 µM; in [5] it was more than 100 µM; in [6], more than 100 µM. The figures for the total growth inhibition concentration (TGI) in [8], in experiment [9] and in experiment [10] were 59.1 µM, more than 100 µM and more than 100 µM, respectively.

Consider `Cc1nc(C(=Nc2ccc(Br)cc2)Nn2cnnc2)no1`, for which the TGI in experiment [1], in experiment [2], in experiment [4], in [5], in experiment [6] and in experiment [7] was more than 100 µM in each case. For the same compound, the TGI in experiment [8], in [9] and in experiment [10] was more than 100 µM each time.

Regarding `CCCCCCCCCCCC1=C(O)C(=O)C(CC2=C(O)C(=O)C(CCCCCCCCCCC)=C(O)C2=O)=C(O)C1=O`, the TGI in experiment [1] is more than 100 µM; in [2], more than 100 µM; in [4], 55.2 µM; in [5], more than 100 µM; in [6], more than 100 µM; in [7] it was more than 100 µM. Besides, the figures for the TGI in [8], in [9] and in [10] were 25.2 µM, more than 100 µM and more than 100 µM, respectively.

Regarding `CC(C)(NO)/C(=N\O)c1ccccc1`, the TGI in experiment [2], in experiment [3], in experiment [4], in experiment [5], in experiment [6] and in experiment [7] was more than 10 µM in each case. Also, the concentration for total growth inhibition (TGI) in experiment [8] and in experiment [9] was more than 10 µM each time.

With `Cn1c2c(c3c(=O)[nH]ncc31)Cc1ccccc1-2`, the concentration for total growth inhibition (TGI) was more than 100 µM in experiment [1]; 34.7 µM in experiment [2]; 69 µM in experiment [3]; 69.4 µM in experiment [4]; 38.9 µM in experiment [5]; 98.2 µM in experiment [6]. In addition, the TGI in [7] was more than 100 µM; in experiment [8] it was 32.4 µM; in [9], 27.1 µM.

As to `COC(=O)C(Cc1ccccc1)NC(=O)C(CNC(=O)OCc1ccccc1)C(=O)OCc1ccccc1` (stereo unspecified), the GI50 (commonly the concentration that inhibits growth by half) in experiment [3] is > 100 µM and 21.6 µM; in experiment [4], > 100 µM and 31.9 µM; in experiment [5] it was > 100 µM and 10.2 µM; in [10], 52.2 µM and 22.1 µM. In addition, the TGI in experiment [3] is more than 100 µM; in [4] it was more than 100 µM; in [5], > 100 µM and 26.8 µM; in experiment [6], > 100 µM and 64.6 µM; in experiment [7], more than 100 µM; in [8], 34.1 µM. In experiment [10], the TGI is > 100 µM and 85.8 µM.

On to `COc1ccccc1N=Nc1c(O)ccc2ccccc12`, for which the TGI was more than 100 µM in [1]; 27.2 µM in experiment [2]; 56.3 µM and 42.5 µM in experiment [4]; more than 100 µM in [5]; more than 100 µM in experiment [6]; more than 100 µM in experiment [7]. For the same compound, the TGI in [8] was 35.3 µM and 59.7 µM; in experiment [9] it was more than 100 µM; in experiment [10], more than 100 µM. Besides, the GI50 in [5] is 33.6 µM and 85 µM; in experiment [7], > 100 µM and 41.8 µM; in [8], 12.3 µM and 28.7 µM; in experiment [9] it was 41.5 µM and > 100 µM; in [10], 30.4 µM and 61.4 µM.
